In patent publication US12642875B2, “Liposomal nanocarrier delivery system for targeting active CD44 molecule, preparation method therefor, and uses thereof” (Beijing Inno Medicine Co., Ltd., priority 2018, dated 2026):

Legend:
[1] = test system: ApoE−/− mouse model of arterial vulnerable plaque; assay: In vivo therapeutic effect of atorvastatin delivery systems on arterial vulnerable plaques (Experimental Example 4, carotid MRI); design: species or system mice; details: once every other day, 5 treatments, control progressed by 34.87%
Description: (§1) Except for the control group of vulnerable plaque model, the treatment group was treated once every other day for a total of 5 treatments. For animals in each group, carotid MRI scans were performed before and after treatment to detect plaque and lumen area, and the percentage of plaque progression was calculated. Percentage of plaque progression=(plaque area after treatment−plaque area before treatment)/lumen area.

[2] = test system: ApoE−/− mouse model of arterial vulnerable plaque; assay: In vivo radioisotopic tracing of vulnerable plaque (Experimental Example 8); design: species or system mice; details: tail vein, tracer 2 mSv/kg, imaging 2 hours after administration
Description: (§2) • (1) A normal saline solution of free rosuvastatin was prepared, and the liposome nano delivery systems loaded with radioisotopic tracer and therapeutic agent was prepared by the method described in the above Example 11. • (2) Establishment of ApoE−/− mouse model of arterial vulnerable plaque according to Experimental Example 4. • (3) Trace of vulnerable plaque in experimental animals:
The experimental animals were randomly divided into the following groups, 6 mice in each group: • Free F-FDG group: the dosage of F-FDG was 2 mSv/kg body weight; • LP1-(F-FDG)-OPN group: the dosage of F-FDG was 2 mSv/kg body weight; • LP1-(99mTc)-OPN group: the dosage of 99mTc was 2 mSv/kg body weight; • LP1-(I-131)-OPN group: the dosage of 1-131 was 2 mSv/kg body weight.
Animals in each experimental group were injected with the corresponding tracer through the tail vein, and radioisotopic imaging was performed before administration and 2 hours after administration to observe the identification of atherosclerotic vulnerable plaque in each group.

[3] = test system: ApoE−/− mouse model of arterial vulnerable plaque; assay: In vivo therapeutic effect of rosuvastatin delivery systems on arterial vulnerable plaques (Experimental Example 3, carotid MRI); design: species or system mice; details: once every other day, 5 treatments, control progressed by 36.23%
Description: • (1) A normal saline solution of free rosuvastatin was prepared, and the liposome nanocarrier delivery systems loaded with therapeutic agent were prepared by the method described in the above Example 1-3. • (2) Establishment of ApoE−/− mouse model of arterial vulnerable plaque:
SPF-grade ApoE−/− mice (42 mice, 5-6 weeks old, weight 20±1 g) were taken as experimental animals. The mice were fed with an adaptive high-fat diet (fat 10% (w/w), cholesterol 2% (w/w), sodium cholate 0.5% (w/w), and the rest being normal feed for mice) for 4 weeks, and then anaesthetized via intraperitoneal injection of 1% sodium pentobarbital (prepared by adding […] of sodium pentobarbital to 100 ml of normal saline) at a dose of 40 mg/kg. Then, the mice were fixed on the surgical plate in the supine position, disinfected around the neck with 75% (v/v) alcohol, the neck skin was cut longitudinally, and the anterior cervical gland was bluntly separated, and the beating left common carotid artery can be observed on the left side of the trachea. […]
as §1, with “Percentage of plaque progression=(plaque area after treatment−plaque area before treatment)/lumen area.” left out

[4] = test system: ApoE−/− mouse model of arterial vulnerable plaque; assay: In vivo therapeutic effect of LP2-(AuNP/R)-OPN on arterial vulnerable plaques (Experimental Example 5, carotid MRI); design: species or system mice; details: once every other day, 5 treatments, control progressed by 31.23%
Description: as §2, with “CT” for “radioisotopic”, “7.” for “11.”
as §1

[5] = oral, clinical practice; cited from earlier work
[6] = target: T1, CD44 on the surface of endothelial cells at arterial vulnerable plaques (Mus musculus, UniProt P15379); assay: Binding force integration of amino fluorescein labelled ligand/antibody, flow cytometry MFI, endothelial cells; design: species or system mice; details: normal cells set to 1; labelled ligand/antibody 10 mg/ml, 30 minutes, 37° C.
T1 construct: from tissue; host or cells: endothelial cells from arterial vulnerable plaques of model mice
T1 sequence (P15379 23-778): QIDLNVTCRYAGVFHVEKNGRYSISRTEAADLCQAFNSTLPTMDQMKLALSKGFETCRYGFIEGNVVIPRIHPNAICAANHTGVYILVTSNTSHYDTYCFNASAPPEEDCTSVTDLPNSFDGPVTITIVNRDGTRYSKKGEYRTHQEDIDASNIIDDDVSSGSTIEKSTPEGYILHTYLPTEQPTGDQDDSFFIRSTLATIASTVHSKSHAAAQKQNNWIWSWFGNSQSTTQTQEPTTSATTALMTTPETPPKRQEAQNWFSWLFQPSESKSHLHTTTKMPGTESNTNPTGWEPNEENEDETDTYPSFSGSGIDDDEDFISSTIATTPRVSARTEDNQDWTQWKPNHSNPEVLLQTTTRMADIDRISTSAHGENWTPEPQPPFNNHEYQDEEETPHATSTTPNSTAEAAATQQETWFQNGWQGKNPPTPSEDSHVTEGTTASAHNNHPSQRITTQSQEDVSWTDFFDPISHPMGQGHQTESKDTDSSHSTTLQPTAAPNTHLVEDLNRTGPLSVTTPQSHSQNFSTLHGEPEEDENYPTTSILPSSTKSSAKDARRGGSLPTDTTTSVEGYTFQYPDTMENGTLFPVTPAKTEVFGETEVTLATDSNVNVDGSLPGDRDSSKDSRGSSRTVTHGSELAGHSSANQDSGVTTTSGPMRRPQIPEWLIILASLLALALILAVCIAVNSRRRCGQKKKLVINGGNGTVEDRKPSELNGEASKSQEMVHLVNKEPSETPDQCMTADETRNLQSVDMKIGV
Description: Endothelial cells at normal arterial vessel walls and endothelial cells at arterial vulnerable plaques of model mice were taken, and the ligand/antibody labeled with amino fluorescein at a concentration of 10 mg/ml was added, the sample was cultured in Dulberic modified Eagle's medium (DMEM) (containing calf serum with a volume fraction of 10%, 100 U/ml penicillin, 100 U/ml streptomycin) at 37° C., in 5% CO2 incubator. After 30 minutes, the mean fluorescence intensity (MFI) was determined by flow cytometry (CytoFLEX, Beckman Coulter, U.S.A.), and the binding force integration of FL-ligand/antibody on the surface of both cells was calculated (the binding force of CD44 of endothelial cells of normal arterial vessel walls to ligand/antibody is set to 1).

[7] = target: T2, CD44 on the surface of macrophages inside arterial vulnerable plaques (Mus musculus, UniProt P15379); assay: Binding force integration of amino fluorescein labelled ligand/antibody, flow cytometry MFI, macrophages; design: species or system mice; details: macrophages outside the plaque set to 1; labelled ligand/antibody 10 mg/ml, 30 minutes, 37° C.
T2 construct: from tissue; host or cells: macrophages from inside arterial vulnerable plaques of model mice
T2 sequence (P15379 23-778): T1 sequence (P15379 23-778)
Description: Intraperitoneal macrophages and macrophages inside arterial vulnerable plaques of model mice were taken, and the ligand/antibody labeled with amino fluorescein at a concentration of 10 mg/ml was added, the sample was cultured in DMEM (containing calf serum with a volume fraction of 10%, 100 U/ml penicillin, 100 U/ml streptomycin) at 37° C., in 5% CO2 incubator.

[8] = intragastric, 10 mg rosuvastatin per kg

binding force integration of CD44 on the surface of endothelial cells at vulnerable plaques, relative to endothelial cells of normal arterial vessel walls [6]	binding force integration of CD44 on the surface of macrophages at vulnerable plaques, relative to macrophages outside the plaque [7]	Molecule	also measured
		CC(C)c1c(C(=O)Nc2ccccc2)c(-c2ccccc2)c(-c2ccc(F)cc2)n1CC[C@@H](O)C[C@@H](O)CC(=O)O [atorvastatin]	percentage of plaque progression ([1]; intragastric, 20 mg atorvastatin per kg): 33.21%; percentage of plaque progression ([1]; intravenous, 1.2 mg atorvastatin per kg): 32.98%
		OC[C@H]1OC(O)[C@H]([18F])[C@@H](O)[C@@H]1O (stereo partly drawn) [free F-FDG, fluorine 18 (18F)-labeled fludeoxyglucose]	in vivo tracing effect on arterial vulnerable plaques (radioisotopic imaging) [2]: doesn't show any tracing effect
		CC(C)c1nc(N(C)S(C)(=O)=O)nc(-c2ccc(F)cc2)c1/C=C/[C@@H](O)C[C@@H](O)CC(=O)O [rosuvastatin]	percentage of plaque progression [3, 8]: 33.9%; percentage of plaque progression ([3]; intravenous, 0.66 mg rosuvastatin per kg): 32.46%; percentage of plaque progression [4, 8]: 30.9%; percentage of plaque progression ([4]; intravenous, 0.67 mg rosuvastatin per kg): 25.34%; bioavailability when administered orally [5]: about 20%
21 times	38 times	collagen	
18 times	35 times	fibronectin	
approximately 24 times	approximately 40 times	hyaluronic acid [HA]	
16 times	37 times	laminin	
17 times	33 times	osteopontin: natural ligand for CD44	
